Data reported in EP1956033A1, “Acrylimides with initiator characteristics” (Mondi Release Liner Austria GmbH, priority 2007, dated 2008).

Columns and labels:
[1] = Test for initiator properties: photopolymerisation of HDDA with the acrylimide added as initiator; settings: approx. 6 mol-% imido groups in HDDA, 250-450 nm, 900 mW/cm^2; for DBC: double bond conversion from heat of polymerisation; for Rate: mean polymerisation rate of the mixture, means of multiple determinations; for tmax: time to exotherm maximum (maximum polymerisation rate)
Source text: Dabei wurden die üblichen Polymerisationsparameter aufgezeichnet, und die Ergebnisse sind (als Mittelwerte von […]) in […] gibt die "Rate" die […]) des jeweiligen […] an. "DBC" ("double bond conversion"; in %) […] aus der Polymerisationswä[…] an polymerisierten Doppelbindungen, bezogen auf die […], und "tmax" ist die bis zum Erreichen des […]. bis zur […]) erforderliche Zeit (in s). Zusätzlich sind der Gehalt der jeweiligen Verbindung in HDDA in Gew.-% und in Mol-% sowie der Gehalt an Acrylimidogruppen in Mol-% angegeben. Tabelle 1

[2] = Test under self-initiation: irradiation and polymerisation in bulk without additional initiator; parameters: Rate: unit not given here; settings: for DBC / Rate / tmax: 100 wt-% compound, in bulk, no additional initiator; for Polymerisationsraten in Substanz gegenüber Verwendung als Initiatoren für HDDA (Faktor): ratio of rate in bulk to rate of the same compound as initiator in HDDA
[3] = Preliminary tests of the inventors on di(meth)acrylated carboxamides (reactivity / initiator properties)
Source text: Da sich in der Literatur keine Hinweise auf derartige Eigenschaften von Di(meth)-acrylamiden fanden, zielten Vorversuche der Erfinder auf Triacylamide ab, in denen zwei der Acylgruppen (Meth)acrylgruppen waren.

Compound	DBC [1]	Rate [1]	tmax [1]	DBC [2]	Rate [2]	tmax [2]	Polymerisationsraten in Substanz gegenüber Verwendung als Initiatoren für HDDA (Faktor) [2]	Reaktivität / Initiatoreigenschaften [3]
C=CC(=O)N(CCC)C(=O)C=C [[12], N-Propylacrylimid]	82,6%	29,8 10^3 mol/l.s.	159,6 s	95,2%	196,3	20,4 s	–	–
C=CC(=O)N(CCCCCC)C(=O)C=C [[13], N-Hexylacrylimid]	80,2%	28,5 10^3 mol/l.s.	159,9 s	92,7%	170,0	21,3 s	–	–
C=CC(=O)N(CC(CC)CCCC)C(=O)C=C (stereo not drawn) [[14], N-2-Ethylhexylacrylimid]	80,9%	28,3 10^3 mol/l.s.	157,1 s	89,1%	164,8	21,8 s	–	–
C=CC(=O)N(CCN(CC)CC)C(=O)C=C [[15], N-(2-Diethylaminoethyl)acrylimid]	80,2%	27,7 10^3 mol/l.s.	160,8 s	90,3%	167,4	20,9 s	–	–
C=CC(=O)N(CCCCCCN(C(=O)C=C)C(=O)C=C)C(=O)C=C [[16], N,N'-(1,6-Hexylen)bisacrylimid]	75,7%	20,6 10^3 mol/l.s.	162,4 s	–	–	–	–	–
C=CC(=O)N(CCC(C)(C)CC(C)CN(C(=O)C=C)C(=O)C=C)C(=O)C=C (stereo not drawn) [[17], N,N'-(2,4,4-Trimethyl-1,6-hexylen)bisacrylimid]	75,3%	20,2 10^3 mol/l.s.	165,0 s	78,9%	42,6	19,5 s	~2	–
C=CC(=O)N(CC1CCCC(CN(C(=O)C=C)C(=O)C=C)C1)C(=O)C=C (stereo not drawn) [[18], N,N'-(1,3-Cyclohexylendimethylen)bisacrylimid]	73,6%	19,1 10^3 mol/l.s.	167,5 s	–	–	–	–	–
C=CC(=O)N(CCCCCCCCCCCCN(C(=O)C=C)C(=O)C=C)C(=O)C=C [[19], N,N'-(1,12-Dodecylen)bisacrylimid]	76,8%	20,9 10^3 mol/l.s.	163,9 s	–	–	–	–	–
C=CC(=O)N(CCOCCOCCN(C(=O)C=C)C(=O)C=C)C(=O)C=C [[20], N,N'-(3,6-Dioxa-1,8-octylen)bisacrylimid]	74,8%	21,2 10^3 mol/l.s.	171,2 s	–	–	–	–	–
C=CC(=O)N(CCC[Si](C)(C)O[Si](C)(C)CCCN(C(=O)C=C)C(=O)C=C)C(=O)C=C [[21], N,N'-(4,6-Disila-5-oxa-4,4,6,6-tetramethyl-1,9-nonylen)bisacrylimid]	78,2%	23,4 10^3 mol/l.s.	153,0 s	80,2%	–	19,2 s	~2	–
C=CC(=O)N(CCN(CCN(C(=O)C=C)C(=O)C=C)CCN(C(=O)C=C)C(=O)C=C)C(=O)C=C [[22], Tris(2-acrylimidoethyl)amin]	72,4%	17,8 10^3 mol/l.s.	182,2 s	73,5%	38,1	16,8 s	~2	–
Diacrylpropionamid	–	–	–	–	–	–	–	mäßig reaktive Monomere ohne Initiatoreigenschaften
